According to US20170280718A1, “HERBICIDAL AND FUNGICIDAL COMPOSITIONS AND THEIR USES” (The Regents of the University of California, priority 2014, published 2017):
“Also recorded” adds a separate entry of the source. Where two headings read alike, the source gives them in different places.

Legend:
E. coli = experiment: Bacterial growth in LB media containing the chemical; assay type: cell-based; details: OD over 8 hours
Experimental: Two mL of Luria-Bertani (LB) media (10 g tryptone, 5 g yeast extract, and 10 g NaCl, pH 7) were inoculated with a single colony of TOP 10 cells and incubated overnight at 37° C. Thirty μL of this culture was then used to inoculate 3 mL of LB media containing the chemical. The OD was measured every 30 minutes over 8 hours using a spectrometer.

tubulin = experiment: MT polymerization assay (in vitro, OD of polymerized tubulin); assay type: biochemical; details: 15 μM
Text: The MT polymerization data was obtained using a polymerization assay kit (Cytoskeleton, Inc. Denver Colo.), employing OD measurements of polymerized tubulin as previously described (Shelanski et al., 1973; Lee and Timasheff, 1977).

[1] = system: ER, Golgi, TGN, early endosomes, vacuole, CLC2-GFP, Theseus-GFP, sec-GFP markers; experiment: Specificity: organelle markers and their subcellular localizations in etiolated hypocotyls; assay type: cell-based, Arabidopsis
Text: (§1) Transgenic lines expressing MAN-YFP (Nebenfuhr et al., 1999), HDEL-GFP (Nelson et al., 2007), VAMP711-YFP (Geldner et al., 2009), NTPP-RFP (Rosado et al.), THE1-GFP (Hematy et al., 2007), CLC-GFP (Konopka et al., 2008), VHA-RFP (Dettmer et al., 2006), VTI12-YFP (Geldner et al., 2009), CFP-SYP61 (Robert et al., 2008), sec-GFP (Goh et al., 2007), CESA6-YFP (Paredez et al., 2006), TUB-GFP (Nakamura et al., 2004), EB1-GFP (Bisgrove et al., 2008) and TALIN-GFP ((Mathur et al., 1999) were used. In addition, the mutant ixr1-1 (Scheible et al., 2001) and prc1-1 (Desnos et al., 1996) were used.
Confocal images for CFP-SYP61-×CESA3-GFP were obtained using a Leica SP5 microscope using a 63× water objective employing dual channel sequential line scanning. Fluorescent markers were excited at 442 nm (CFP) and 488 nm (GFP). Additional confocal images were obtained using a Zeiss 710 equipped with a 63× oil and a 40× water objective. A 561 nm diode laser was used for propidium iodide (PI, Sigma) and RFP, a 488 nm for GFP, a 514 nm for YFP, and a 405 nm for CFP. Image analysis was performed using a combination of software tools: ImageJ software (version 1.36b; http://rsbweb.nih.gov/ij/), Image Pro Plus (Media Cybernetics, Rockville, Md.), and Imaris (Bitplane, Saint Paul, Minn.). […]

[2] = system: cellulose content in Arabidopsis etiolated seedlings; experiment: Cellulose content of etiolated hypocotyls (modified Updegraff method, Anthrone assay); assay type: in vivo, Arabidopsis thaliana
Experimental: Etiolated WT Col-0 Arabidopsis thaliana seedlings were grown on AGM containing CESTRIN as described above. Hypocotyls were harvested after 8 days of growth. Cell wall materials were isolated into alcohol insoluble residues (AIR) (Gunl et al., 2010) and cellulose content was estimated using a modified Updegraff method (Updegraff, 1969). Briefly, insoluble trifluoroacetic acid hydrolyzed AIR pellets were quantified using the Anthrone assay as described earlier Viles & Silverman (1949) and Dische (1962).

[3] = system: Arabidopsis etiolated hypocotyls; experiment: Hypocotyl growth measurements of etiolated seedlings; assay type: in vivo; details: for IC50: Arabidopsis thaliana; for hypocotyl growth response of prc1-1 mutant: CESA6 mutant prc1-1, 8 μM CESTRIN or 4 nM isoxaben, lower degree than WT Col-0
Experimental: For growth analysis, seedlings were germinated on AGM containing the chemicals CESTRIN or isoxaben solubilized in DMSO and grown as described above. When the experiment was complete, the plates were scanned using a flatbed scanner (Epson Perfection V300) and hypocotyl lengths were measured using the segmented line tool in the image analysis software, ImageJ (Rasband et al., 1997-2014). Statistical analyses were carried out using the statistical package, R (R Core Team, 2012).

Phytophtora capsici = experiment: Phytophthora growth in corn agar media; assay type: cell-based; details: 3 weeks in supplemented media
Experimental: Phytophtora capsici inoculates were grown in corn agar media supplemented either with DMSO or different concentrations of CESTRIN. After 3 weeks cultures were imaged using flatbed scanner.

GFP-KOR1 = details: CESTRIN treatment; control average 220 nm/min
[4] = system: GFP-CESA3 (cellulose synthase complexes, CSCs); details: 2-hour CESTRIN treatment (15 μM); control 218 nm/min
[5] = system: GFP-CESA3 and CFP-SYP61 compartments; experiment: Colocalization of GFP-CESA3 and CFP-SYP61 compartments, confocal microscopy; assay type: cell-based, Arabidopsis; details: versus DMSO; p=0.0013, t-test
Experimental: (§2) Confocal images for CFP-SYP61-×CESA3-GFP were obtained using a Leica SP5 microscope using a 63× water objective employing dual channel sequential line scanning. Fluorescent markers were excited at 442 nm (CFP) and 488 nm (GFP). Additional confocal images were obtained using a Zeiss 710 equipped with a 63× oil and a 40× water objective. A 561 nm diode laser was used for propidium iodide (PI, Sigma) and RFP, a 488 nm for GFP, a 514 nm for YFP, and a 405 nm for CFP. Image analysis was performed using a combination of software tools: ImageJ software (version 1.36b; http://rsbweb.nih.gov/ij/), Image Pro Plus (Media Cybernetics, Rockville, Md.), and Imaris (Bitplane, Saint Paul, Minn.).
CSCs are enriched in SYP61 associated compartments upon CESTRIN treatment. The apparent redistribution of CSCs in the cell cortex prompted us to further investigate the identity of CESTRIN bodies. Previous studies have shown that CSCs are partially colocalized with SYP61/VHA-a1 in early endosome/TGN compartments (Crowell et al., 2009; Gutierrez et al., 2009). The presence of CESAs in SYP61 vesicles has been established by proteomic analysis (Drakakaki et al., 2012). […] As previously shown, both SYP61 and SYP41/42 partially overlap with CESA6 under mock treatment, however only SYP61 remains partially colocalized after mannitol treatment (Gutierrez et al., 2009). […]

[6] = system: Schizosaccharomyces pombe; experiment: Yeast growth on solid YPD containing the chemical; assay type: cell-based; details: 5 days
Experimental: Single colonies of Saccharomyces cerevisiae-Y2H Gold and Schizosaccharomyces pombe were grown in liquid yeast extract-peptone-dextrose (YPD) media (10 g yeast extract, 20 g peptone, and 20 g glucose per 1 L of media, pH 7), at 30° C. for 24 hours. Yeast cultures were transferred to 3 mL of YPD to grow until an OD of 0.7 was reached. Ten μL of liquid YPD containing yeast at an OD 0.7 were placed onto solid YPD (10 g yeast extract, 20 g peptone 20 g glucose and 11 g bacto-agar per 1 L of media, pH 7) in a 6 well plate containing the chemicals. Four serial dilutions (1:10) were spotted per well. Plates were incubated at 30° C. for 3 days for Saccharomyces cerevisiae-Y2H Gold and 5 days for Schizosaccharomyces pombe and imaged with a flatbed scanner.

[7] = system: microtubules (TUB-GFP, RFP-TUA5), EB1-GFP, Talin-GFP, CESA6-YFP; experiment: Cytoskeleton and CESA marker localization in etiolated hypocotyls (microtubules, EB1, actin, CESA6); assay type: cell-based, Arabidopsis
Text: as §1, §2

## Cc1cc(C(F)(F)F)cc(NNc2c([N+](=O)[O-])cc(C(F)(F)F)cc2[N+](=O)[O-])n1 [CESTRIN, 1-[2,6-dinitro-4-(trifluoromethyl)phenyl]-2-[6-methyl-4-(trifluoromethyl)pyridin-2-yl]hydrazine]
E. coli
  effect on proliferation of bacteria: no effect on their proliferation was observed
tubulin
  in-vitro polymerization of tubulin: not affected; also recorded: does not inhibit in vitro tubulin polymerization
[1]
  localization of PM-receptor-like kinase Theseus-GFP and secretion marker sec-GFP: neither the localization of the PM-receptor-like kinase Theseus-GFP nor the secretion marker sec-GFP were altered
  morphology of endosomes labeled by CLC2-GFP: unaltered morphology
[2]; 9 μM, etiolated seedlings, 8 days, DMSO 103.7 ± 6.4
  Cellulose content, Hypocotyl: 75.3 ± 2.7 μg/mg AIR
[2]; hypocotyls grown on 9 μM CESTRIN
  reduction in cellulose compared to control seedlings: ~30%
3×Ypet-POM2/CSI1; 2 hours of CESTRIN treatment
  localization of 3×Ypet-POM2: localized to the cytoplasm
3×Ypet-POM2/CSI1; after 2 hours of treatment
  motility of POM2 labelled particles: came virtually to a rest
3×Ypet-POM2/CSI1; after about 1.5 hours of treatment, n=106, control ~262 nm/min
  average motility of POM2 labelled particles: 0.273 ×10⁻⁶ cm/s
[3]; read-out: estimated IC50, anisotropic cell growth
  IC50: 4.9 µM
[3]; read-out: half maximal inhibitory concentration (IC50), growth inhibition of hypocotyls
  IC50: 4.85 µM
[3]
  hypocotyl growth response of prc1-1 mutant: showed sensitivity
[3]; WT Col-0, 8 μM CESTRIN vs DMSO, P=0.001
  reduction of hypocotyl growth of WT Col-0: 80%
[3]; isoxaben-resistant CESA3 mutant ixr1-1, 8 μM CESTRIN vs DMSO, n=16
  reduction of hypocotyl growth of ixr1-1: 62%
Phytophtora capsici
  Phytophthora capsici growth: completely inhibited
GFP-KOR1
  mean velocity of GFP-KOR1 labelled particles: ~60 nm/min
[4]
  average velocity of the GFP-CESA3 particles: 127 nm/min
[5]
  enhancement of colocalization of GFP-CESA3 and CFP-SYP61 compartments: ~15%
[6]
  growth of yeast: inhibited
[7]; 15 μM
  morphology or organization of actin (Talin-GFP): does not affect
[7]; 15 μM (printed 15 JIM)
  localization of the end binding protein 1 (EB1-GFP): induced cytoplasmic localization
[7]; two-hour treatment
  MT organization and GFP-CESA3 particle distribution (RFP-TUA5 / GFP-CESA3 seedlings): causes loss of MT organization and redistribution of GFP-CESA3 particles

## CCC(C)(CC)c1cc(NC(=O)c2c(OC)cccc2OC)on1 [isoxaben, N-[3-(1-Ethyl-1-methylpropyl)-5-isoxazolyl]-2,6-dimethyoxybenzamide, reference compound]
[3]
  hypocotyl growth response of prc1-1 mutant: showed sensitivity
[3]; ixr1-1, 4 nM isoxaben vs DMSO, p=0.2
  hypocotyl growth of ixr1-1: not reduced
